# Legend:
# Type in all cases: cell-based
# [1] = test system: c-Myc; assay: BRD4 human c-Myc ELISA assay in 22RV-1 cells; conditions: 22Rv1, 18 hours
# Experimental: 6. BRD4 Human c-Myc ELISA Assay Protocol
# 22RV-1 cells were seeded at 30,000 cells/well at a volume of 75 μL/well in RPMI with 10% FBS media in 96-well plates and grown overnight at 37° C. Cells were dosed with compounds at 4× concentration diluted in 0.4% DMSO; compounds were serially diluted 1:3 for 8-point dose curve. Twenty-five (25) ul of the compounds was added to cells for a final concentration starting at 300 nM-0.3 nM or 1 uM-1 nM in 0.1% DMSO and incubated for 18 hours. Media was aspirated, cells were washed 1× with PBS and aspirated. Cells were lysed in 50 ul RIPA buffer (50 mM Tris pH8, 150 mM NaCl, 1% Tx-100, 0.1% SDS, 0.5% sodium deoxycholate) supplemented with protease and phosphatase inhibitors. Plates were incubated on ice for 15 minutes then centrifuged at 4° C. for 10 minutes at 4000 rpm. Fifty (50) ul of cleared lysate from a 96-well assay plate was added into 96-well c-myc ELISA plate (Novex, Life Technologies Catalog #KH02041). c-myc standard was reconstituted with standard diluent buffer; standard curve range of 333 pg/ml-0 pg/ml was prepared, diluted 1:2 for 8-point dose curve. The rest of the assay was performed following the protocol from the c-myc ELISA kit. Data was analyzed and plotted using GraphPad Prism software.
# [2] = test system: estrogen receptor; assay: ERE luciferase assay in T47D-KBluc cells; conditions: Homo sapiens, 24 hours, read-out: ER Target Engagement IC50
# Experimental: 1. ERE Luciferase Assay for Compounds in Table 2
# T47D-1(Bluc cells (ATCC® ECRL 2 65, T47D human breast cancer cells stably transfected with estrogen responsive element/promoter/luciferase reporter gene) were seeded into 96-well white opaque plates in IR: PM growth medium supplemented with 10% fetal bovine serum (FBS) and allowed to adhere overnight in a 37° C. humidified incubator. The following day, cells were treated with PROTACs in a 12-point concentration curve (top final concentration of 300 nM with subsequent concentrations being 3-fold less with […] being the lowest concentration in the assay). Each PROTAC was tested independently in two experiments on 96-well plates. After 24 hours, media was removed and lysis buffer was added to the wells. Following lysis, Bright-Glo™ Luciferase Assay Substrate (Promega, Madison WI) was added and the luciferase activity was measured using a Cytation 3 plate reader (BioTek™, Winooski, VT). Each compound was assayed in duplicate and the activity was calculated as […] using GraphPad Prism software (San Diego, CA).
# [3] = target: T1, estrogen receptor-alpha (ERα) (Homo sapiens (Human), UniProt P03372); assay: Estrogen receptor-alpha (ERα) degradation assay in T47D cells; conditions: % degraded, 5 day incubation, read-out: ER Degradation Dmax
# T1 sequence (P03372 whole entry): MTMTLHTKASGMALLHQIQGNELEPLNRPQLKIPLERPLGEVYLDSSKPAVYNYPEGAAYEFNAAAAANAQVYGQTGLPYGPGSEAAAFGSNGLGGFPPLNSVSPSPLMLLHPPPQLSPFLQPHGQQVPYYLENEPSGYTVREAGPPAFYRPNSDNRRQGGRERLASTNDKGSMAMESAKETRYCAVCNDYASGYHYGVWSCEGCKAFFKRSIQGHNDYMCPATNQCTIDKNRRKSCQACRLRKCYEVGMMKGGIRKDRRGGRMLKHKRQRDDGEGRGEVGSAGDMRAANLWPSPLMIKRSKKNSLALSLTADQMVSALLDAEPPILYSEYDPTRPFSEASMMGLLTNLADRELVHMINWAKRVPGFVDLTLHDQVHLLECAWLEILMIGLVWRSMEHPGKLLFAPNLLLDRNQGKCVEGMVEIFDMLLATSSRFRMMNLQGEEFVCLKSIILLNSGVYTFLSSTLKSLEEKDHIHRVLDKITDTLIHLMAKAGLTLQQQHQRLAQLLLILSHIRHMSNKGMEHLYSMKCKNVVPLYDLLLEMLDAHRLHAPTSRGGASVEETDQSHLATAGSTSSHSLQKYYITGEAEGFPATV
# [4] = target: T1, estrogen receptor-alpha (ERα); assay: Estrogen receptor-alpha (ERα) degradation assay in MCF7 cells (In-Cell Western / western blot); conditions: % degraded, read-out: ER Degradation Dmax
# Experimental: 2. Estrogen Receptor-Alpha (ERα) Degradation Assay in MCF-7 Cells Using Western Blot Method for Table 5
# The exemplary novel ERα degraders were assessed for their activity in degrading ERα in MCF-7 cells via western blot. The assay was carried out in the presence of 10% FBS or high percentage of human or mouse serum. Protocols of the western blot assay are described below.
# MCF7 cells were grown in DMEM/F12 with 10% FBS and seeded at 24,000 cells per well in 100 μl into 96-well clear tissue culture plates. The following day, the cells were treated with PROTACs in a […] concentration curve with 100 nM being the top concentration and serial dilutions to make the other concentrations (30 nM, 10 nM. 3 nM, 1 nM, and 0.3 nM). At all concentrations, 0.01% DMSO is the final concentration in the well. The following day, the plates are aspirated, washed with 50 μl of cold PBS. The cells are lysed with 50 μl/well 4° C. Cell Lysis Buffer (Catalog #9803; Cell Signaling Technology, Danvers, MA) (20 mM Tris-HCL (pH 7.5), 150 mM NaCl, 1 mM Na2EDTA, 1 mM EGTA, 1% Triton, 2.5 mM sodium pyrophosphate, 1 mM B-glycerophosphate, 1 mM sodium vanadate, 1 μg/ml leupeptin). Lysates were clarified at 16,000× g for 10 minutes, and 2 μg of protein was subjected to SDS-PAGE analysis and followed by immunoblotting according to standard protocols. The antibodies used were ERα (Cell Signaling, Technologies Catalog #8644), and Tubulin (Sigma Catalog #T9026; St. Louis, MO). Detection reagents were Clarity Western ECL substrate (Bio-Rad Catalog 4170-5060; Hercules, CA).
# Alternatively, MCF7 cells were grown in DMEM/F12 with 10% FBS and seeded at 24,000 cells per well in 500 μl in 24-well clear tissue culture plates. The following day, the cells were treated with PROTACs in a 5-point concentration curve (100 nM, 33 nM, 11 nM, 3.7 nM, and 1.2 nM) in the presence of 0.01% DMSO. After 72 hours, the wells are aspirated and washed with 500 μl of PBS. The cells are lysed with 100 μl/well 4° C. Cell Lysis Buffer (Catalog #9803; Cell Signaling Technology, Danvers, MA) (20 mM Tris-HCL (pH 7.5), 150 mM NaCl, 1 mM Na2EDTA, 1 mM EGTA, 1% Triton, 2.5 mM sodium pyrophosphate, 1 mM B-glycerophosphate, 1 mM sodium vanadate, 1 ug/ml leupeptin). Lysates were clarified at 16,000× g for 10 minutes, and 2 μg of protein was subjected to SDS-PAGE analysis and followed by immunoblotting according to standard protocols. The antibodies used were ERα (Cell Signaling Technologies Catalog #8644), and Tubulin (Sigma Catalog #T9026; St. Louis, MO). Detection reagents were Clarity Western ECL substrate (Bio-Rad Catalog 4170-5060; Hercules, CA).
# 3. Estrogen receptor-alpha (ERα) degradation assay using In-Cell Western™ Assay for Table 5
# Degradation of ERα by claimed compounds were determined in MCF7 cells using an In-Cell Western™ assay. Briefly, MCF7 cells were plated in 96-well plates (2000 cells per well in 100 μl media) and incubated at 37° C. under an atmosphere of 5% CO2 in a humidified incubator overnight. One-hundred (100) μl of media containing test compound (at 2× concentration) was added to the appropriate wells to provide 11 serially decreasing concentrations (top final concentration, 1 μM then 3-fold less for the next 10 concentrations); a vehicle control (DMSO) was also added for each compound. For each experiment, all compounds were assayed in duplicate plates. Cells were then incubated for 3 or 5 days in the above-mentioned environment. The assay was terminated by removal of media, a single wash with ice-cold PBS and the addition of […] paraformaldehyde (PFA: 4% in PBS). After 15 minutes in PFA at room temperature, the cells were permeabilized in Tris-phosphate-buffered saline with Tween (0.1%) (TBST) supplemented with Triton X-100 (0.5%) for 15 minutes. Cells were then blocked in BSA (TBST with BSA, 3%) for one hour. […] The cells were incubated overnight at 4° C. […]
Structure (SMILES),IC50 [1] [nM],IC50 [2] [nM],Dmax [3] [%],Dmax ([4]; 5 day incubation) [%],Dmax ([4]; 3 day incubation) [%]
"Cc1sc2c(c1C)C(c1ccc(Cl)cc1)=NC(CC(=O)NCCCOCCCOc1ccc3ncc(-n4ccc(=O)[nH]c4=O)cc3c1)c1nnc(C)n1-2 (stereo not drawn) [PROTAC-1, 2-(4-(4-chlorophenyl)-2,3,9-trimethyl-6H-thieno[3,2-f] [1,2,4]triazolo[4,3-a][1,4]diazepin-6-yl)-N-(3-(3-((3-(2,4-dioxo-3,4-dihydropyrimidin-1(2H)-yl)quinolin-6-yl)oxy)propoxy)propyl)acetamide]",≥ 100,–,–,–,–
"O=C1CCC(N2CC(Oc3cccc(C4CCN(CCCOc5ccc([C@@H]6c7ccc(O)cc7CC[C@@H]6c6ccccc6)cc5)CC4)c3)=CC2=O)C(=O)N1 (stereo partly drawn) [PROTAC-106, 3-(4-(3-(1-(3-(4-((1R,2 S)-6-hydroxy-2-phenyl-1,2,3,4-tetrahydronaphthalen-1-yl)phenoxy)propyl)piperidin-4-yl)phenoxy)-2-oxo-2,5-dihydro-1H-pyrrol-1-yl)piperidine-2,6-dione]",–,< 1,≤ 50,–,–
"CCN(C(=O)c1ccc(N2CCN(CCCCCOc3ccc([C@@H]4c5ccc(O)cc5CC[C@@H]4c4ccccc4)cc3)CC2)cc1OC)C1CCC(=O)NC1=O (mixture of isomers) [PROTAC-92, rac-N-(2,6-dioxopiperidin-3-yl)-N-ethyl-4-(4-(5-(4-((1R,2S)-6-hydroxy-2-phenyl-1,2,3,4-tetrahydronaphthalen-1-yl)phenoxy)pentyl)piperazin-1-yl)-2-methoxybenzamide]",–,–,≤ 50,–,–
"O=C1CCC(N2CC(Oc3cccc(C4CCN(CCCCOc5ccc([C@@H]6c7ccc(O)cc7CC[C@@H]6c6ccccc6)cc5)CC4)c3)=CC2=O)C(=O)N1 (mixture of isomers) [PROTAC-104, rac-3-(4-(3-(1-(4-(4-((1R,2S)-6-hydroxy-2-phenyl-1,2,3,4-tetrahydronaphthalen-1-yl)phenoxy)butyl)piperidin-4-yl)phenoxy)-2-oxo-2,5-dihydro-1H-pyrrol-1-yl)piperidine-2,6-dione]",–,1 to 10,≤ 50,–,–
"O=C1CCC(N2CC(Oc3cccc(C4CCN(CCCOc5ccc([C@H]6c7ccc(O)cc7CC[C@H]6c6ccccc6)cc5)CC4)c3)=CC2=O)C(=O)N1 (mixture of isomers) [PROTAC-105, rac-3-(4-(3-(1-(3-(4-((1R,2S)-6-hydroxy-2-phenyl-1,2,3,4-tetrahydronaphthalen-1-yl)phenoxy)propyl)piperidin-4-yl)phenoxy)-2-oxo-2,5-dihydro-1H-pyrrol-1-yl)piperidine-2,6-dione]",–,1 to 10,≤ 50,–,–
"O=C1CCC(n2ncc(Oc3ccc(CCCCCOc4ccc([C@@H]5c6ccc(O)cc6CC[C@@H]5c5ccc(F)cc5)cc4)nc3)cc2=O)C(=O)N1 (mixture of isomers) [PROTAC-99, rac-3-(4-((6-(5-(4-((1R,2S)-2-(4-fluorophenyl)-6-hydroxy-1,2,3,4-tetrahydro-naphthalen-1-yl)phenoxy)pentyl)pyridin-3-yl)oxy)-6-oxopyridazin-1(6H)-yl)piperidine-2,6-dione]",–,10 to 100,–,≤ 50,–

# The next lines start with the values.
IC50 [1] [nM],IC50 [2] [nM],Dmax [3] [%],Dmax ([4]; 5 day incubation) [%],Dmax ([4]; 3 day incubation) [%],Structure (SMILES)
–,≥ 100,≤ 50,–,–,"O=C1CCC(N2CC(Oc3cccc(C4CCN(CCCCOc5ccc([C@H]6c7ccc(O)cc7CC[C@H]6c6ccccc6)cc5)CC4)c3)=CC2=O)C(=O)N1 (mixture of isomers) [PROTAC-109, rac-3-(4-(3-(1-(4-(4-((1R,2S)-6-hydroxy-2-phenyl-1,2,3,4-tetrahydronaphthalen-1-yl)phenoxy)butyl)piperidin-4-yl)phenoxy)-2-oxo-2,5-dihydro-1H-pyrrol-1-yl)piperidine-2,6-dione]"
–,< 1,–,50 to 75,–,"O=C1CCC(n2cc(-c3ccc(N4CCN(CCCOc5ccc([C@@H]6c7ccc(O)cc7CC[C@@H]6c6ccccc6)cc5)CC4)cc3)cn2)C(=O)N1 (mixture of isomers) [PROTAC-110, rac-3-(4-(4-(4-(3-(4-((1R,2S)-6-hydroxy-2-phenyl-1,2,3,4-tetrahydronaphthalen-1-yl)phenoxy)propyl)piperazin-1-yl)phenyl)-1H-pyrazol-1-yl) piperidine-2,6-dione]"
–,< 1,–,≤ 50,–,"O=C1CCC(n2cc(-c3ccc(N4CCN(CCCOc5ccc([C@@H]6c7ccc(O)cc7CC[C@@H]6c6ccccc6)cc5)CC4)nc3)cn2)C(=O)N1 (mixture of isomers) [PROTAC-111, rac-3-(4-(6-(4-(3-(4-((1R,2S)-6-hydroxy-2-phenyl-1,2,3,4-tetrahydronaphthalen-1-yl)phenoxy)propyl)piperazin-1-yl)pyridin-3-yl)-1H-pyrazol-1-yl) piperidine-2,6-dione]"
–,1 to 10,–,–,≤ 50,"Cc1nc2c(OCCN3CCN(CCOc4ccc(Oc5c(-c6ccc(Br)cc6)sc6cc(O)ccc56)cc4)CC3)cccc2c(=O)n1C1CCC(=O)NC1=O (stereo not drawn) [PROTAC-108, 3-(8-(2-(4-(2-(4-((2-(4-bromophenyl)-6-hydroxybenzo[b]thiophen-3-yl)oxy)phenoxy)ethyl)piperazin-1-yl)ethoxy)-2-methyl-4-oxoquinazolin-3(4H)-yl)piperidine-2,6-dione]"

# From patent US12441708B2, “Cereblon ligands and bifunctional compounds comprising the same” (Arvinas Operations, Inc., priority 2017, dated 2025)
